According to paper PMC12156344, “Furin-Triggered Peptide Self-Assembly Activates Coumarin Excimer Fluorescence for Precision Live-Cell Imaging” (Molecules, 2025):
Peptide text beside a SMILES is read from it. * marks the point of attachment. DEAC = CCN(CC)c1ccc2cc(C(=O)*)c(=O)oc2c1

How the values were obtained:
[1] = Critical micelle concentration (CMC) measurement by transmittance; details: furin working buffer
Experimental: The transmittance spectra of the solutions were measured using a UV-3600 spectrophotometer (SHIMADZU, Kyoto, Japan).

[2] = physchem
[3] = Transmission electron microscopy (TEM) of self-assembly; assay type: physicochemical; details: aqueous solution, particle size distribution histogram (Figure 3b, S10)
From the text: (§1) Next, we examined the factors driving excimer formation. […] […].

[4] = Concentration-dependent fluorescence (excimer formation) in furin working buffer; assay type: physicochemical; details: under UV irradiation (365 nm lamp)
Experimental: In the next phase, we investigated the optical properties of RF-Cou and its enzymatic product F-Cou. […] In contrast, as the concentration increased, a new emission peak around 550 nm gradually emerged in the fluorescence spectra of F-Cou. […] These observations confirmed the formation of Cou excimers.
Figure 2 The fluorescence emission spectra and images of RF-Cou (a,c) and F-Cou (b,d) at different concentrations in furin working buffer. […] The fluorescence spectra were conducted with the excitation of 430 nm and the slit width of 5 nm. The fluorescence images were taken under the 365 nm UV lamp irradiation.

[5] = Dynamic light scattering (DLS); assay type: physicochemical; details: solution; DLS (Figure S11)
From the text: as §1

[6] = not given; remark: listed apart in the source
[7] = not given; remark: listed apart in the source
[8] = not given; remark: listed apart in the source
[9] = test system: normal mouse fibroblast L929 cells; assay type: cell-based; details: 200 µM
Experimental: 4T1 mouse breast cancer cells or L929 mouse fibroblast cells were cultured in RPMI-1640 medium or Dulbecco’s Modified Eagle’s medium (DMEM) supplemented with 10% v/v FBS, 100 U/mL penicillin, 100 μg/mL streptomycin, and 0.25 μg/mL amphotericin B, respectively. These cells were incubated at 37 °C in a humidified atmosphere of 5% CO2. First, the cells (4T1, L929 cell lines) were seeded in 96-well plates (3 × 10^3 cells in each well) and incubated in a 37 °C cell incubator for 24 h. The RPMI-1640 medium or DMEM was replaced with different concentrations of RF-Cou (0, 1.5, 3.1, 6.2, 12.5, 25.0, 50.0, 100, and 200 μM) in the medium and incubated for 24 h or 48 h, respectively. MTT (5 mg/mL, 10 μL) was then added to each well, and the cells were incubated for another 4 h. The formed formazan crystals were dissolved by DMSO (100 μL per well), and the absorbance at 570 nm was measured using a microplate reader (BioTek, Winooski, VT, USA).

[10] = molecular target: furin (Homo sapiens, UniProt P09958); assay type: biochemical; details: 200 μM with 50 U/mL furin, 37 °C, 12 h
Chain of furin (P09958 108-794, species assumed): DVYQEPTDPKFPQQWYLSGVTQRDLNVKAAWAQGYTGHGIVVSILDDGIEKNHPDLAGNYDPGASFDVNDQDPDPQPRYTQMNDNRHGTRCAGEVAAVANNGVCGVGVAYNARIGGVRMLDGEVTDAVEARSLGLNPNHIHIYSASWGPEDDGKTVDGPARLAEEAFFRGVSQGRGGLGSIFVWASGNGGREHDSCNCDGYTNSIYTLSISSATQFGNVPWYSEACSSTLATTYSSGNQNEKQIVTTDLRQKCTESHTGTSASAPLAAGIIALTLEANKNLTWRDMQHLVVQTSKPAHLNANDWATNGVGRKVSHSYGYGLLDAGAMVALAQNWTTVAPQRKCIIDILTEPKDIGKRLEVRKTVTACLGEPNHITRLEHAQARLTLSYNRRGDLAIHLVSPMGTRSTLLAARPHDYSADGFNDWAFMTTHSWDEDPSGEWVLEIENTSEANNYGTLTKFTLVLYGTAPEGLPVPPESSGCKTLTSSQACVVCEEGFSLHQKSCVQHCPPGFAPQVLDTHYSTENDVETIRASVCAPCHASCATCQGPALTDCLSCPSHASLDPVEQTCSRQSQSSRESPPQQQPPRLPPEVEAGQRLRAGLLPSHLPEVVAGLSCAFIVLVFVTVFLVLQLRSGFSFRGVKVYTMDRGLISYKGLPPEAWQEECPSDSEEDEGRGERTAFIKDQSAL
Experimental: Based on the above in vitro experiments, we concluded that RF-Cou existed as a blue fluorescent monomer in aqueous solution. […] These findings validated the feasibility of using RF-Cou for subsequent precision live-cell imaging studies of furin activity.
Figure 3 (a) Fluorescence decay profiles of the first emission peak at 475 nm (blue) and the last emission peak at 550 nm (green) of 200 μM F-Cou; λex = 405 nm. (b) TEM image of F-Cou. Inset: the particle size distribution histogram. (c) LC-MS traces of 200 μM RF-Cou incubated with or without 50 U/mL furin at 37 °C for 12 h. The blue line corresponds to the probe RF-Cou, and the green line represents its cleavage product F-Cou. TEXT PRINTED IN THE PICTURE: (a) no label printed: First peak at 475 nm <τ> = 4.26 ns; Last peak at 550 nm <τ> = 10.73 ns | (b) no label printed: d = 51.1 ± 9.8 nm

[11] = not given; remark: listed apart in the source
[12] = test system: furin-overexpressing 4T1 tumor cells; assay: Confocal live-cell fluorescence imaging of furin activity, 4T1 cells; assay type: cell-based, mouse; details: 200 μM
Experimental: (§2) 4T1 cells or L929 cells were seeded on confocal dishes (1 × 10^5 cells/dish) and incubated at 37 °C in a humidified atmosphere of 5% CO2 for 24 h. Following the removal of the conditioned medium, 4T1 cells or L929 cells were treated with RF-Cou (200 μM) at various times (0, 0.5, 1, 2, 4, 6, and 8 h). After the incubation was completed, the medium was discarded, PBS was added to clean the cells three times, and laser confocal scanning microscopy was used for cell imaging. To investigate the role of furin in activating excimer fluorescence, 4T1 cells were pre-incubated with 1 mM of furin inhibitor II (Inh) for 30 min and then treated with RF-Cou (200 μM) for 0.5 h or 6 h before imaging.
(§3) Figure 5 (a) Confocal fluorescence images of furin-overexpressing 4T1 cells or normal L929 cells incubated with 200 μM RF-Cou at varying time points; λex = 405 nm, monomer channel (blue) λem = 415–485 nm; excimer channel (green) λem = 520–600 nm; Scale bar: 50 μm. Time-dependent relative fluorescence intensity in monomer and excimer channels of 4T1 (b) or L929 (c) cells, respectively (n = 3, mean ± SD).
Figure 6 (a) Confocal fluorescence images of 4T1 or L929 cells incubated with 200 μM RF-Cou for 0.5 h or 6 h after being treated with or without furin inhibitor (Inh); λex = 405 nm, monomer channel (blue) λem = 415–485 nm; excimer channel (green) λem = 520–600 nm; Scale bar: 50 μm. Fluorescence intensity in monomer and excimer channels of 4T1 (b) or L929 (c) cells, respectively (n = 3, mean ± SD). Flow cytometry results of the excimer channel fluorescence in 4T1 (d) or L929 (e) incubated with 200 μM RF-Cou for 6 h after being treated with or without Inh.

[13] = test system: L929 normal cells; assay: Confocal live-cell fluorescence imaging, L929 cells; assay type: cell-based, mouse; details: 200 μM
Experimental: as §2, §3
Figure 6 (a) Confocal fluorescence images of 4T1 or L929 cells incubated with 200 μM RF-Cou for 0.5 h or 6 h after being treated with or without furin inhibitor (Inh); λex = 405 nm, monomer channel (blue) λem = 415–485 nm; excimer channel (green) λem = 520–600 nm; Scale bar: 50 μm. […]

Compound	Critical micelle concentration (CMC) ([1]; transmittance-concentration curve at 600 nm (Figure S9))	logP [2]	Nanoparticle diameter by TEM [3]	Concentration above which the solution changes from blue to green (excimer formation) [4]	Hydrodynamic diameter by DLS [5]	maximum absorption peak	fluorescence lifetime <τ>, 550 nm emission peak [6]	fold enhancement of fluorescence lifetime, 550 nm vs 475 nm band [7]	fluorescence lifetime <τ>, 475 nm emission peak [8]	Cell viability [9]	Transmittance (self-assembly performance) ([1]; concentrations up to 800 μM, transmittance at 600 nm, UV-3600 spectrophotometer)	Cleavage by furin, LC-MS [10]	maximum emission peak [11]	Excimer fluorescence after furin inhibitor pretreatment ([12]; 4T1 cells pretreated with 1 mM furin inhibitor II (Inh) for 30 min, 6 h)	Cellular uptake ([12]; 4T1 cells with or without Inh pretreatment, 0.5 h, confocal fluorescence)	Excimer channel fluorescence intensity vs monomer channel ([12]; 4T1 cells, peak at 6 h, λex 405 nm, excimer 520–600 nm, monomer 415–485 nm, n = 3)	Cellular uptake ([13]; 0.5 h, confocal fluorescence)	Monomer channel fluorescence intensity vs excimer channel ([13]; 6 h, λex 405 nm, excimer 520–600 nm, monomer 415–485 nm, n = 3)
CCN(CC)c1ccc2cc(C(=O)NCCCC[C@H](N)C(=O)N[C@@H](Cc3ccccc3)C(=O)N[C@@H](Cc3ccccc3)C(=O)O)c(=O)oc2c1 [F-Cou, Lys(Cou)-Phe-Phe-OH]	45.1 µM	1.15	51.1 ± 9.8 nm	exceeded 31.25 μM	69.2 ± 18.4 nm	430 nm	10.7 ns	2.5 fold	4.26 ns									
CCN(CC)c1ccc2cc(C(=O)NCCCC[C@H](NC(=O)[C@H](CCCNC(=N)N)NC(=O)[C@H](CCCNC(=N)N)NC(=O)[C@@H](NC(=O)[C@H](CCCNC(=N)N)NC(C)=O)C(C)C)C(=O)N[C@@H](Cc3ccccc3)C(=O)N[C@@H](Cc3ccccc3)C(=O)O)c(=O)oc2c1 [RF-Cou, Ac-Arg-Val-Arg-Arg-Lys(Cou)-Phe-Phe-OH] (Ac-RVRRK(DEAC)FF-OH)		-1.46	no nanoparticle distribution was observed		no detectable signal corresponding to nanoparticles	430 nm				over 80%	> 95%	could be enzymatically processed by furin to generate F-Cou	475 nm	significantly weaker than that in cells without Inh pretreatment	successful cellular uptake	3.2 fold	successful cellular uptake	approximately 5.1 fold
